# Measured values taken from PMC5715351, “Cysteine and histidine residues are involved in Escherichia coli Tn21 MerE methylmercury transport” (FEBS Open Bio, 2017).
# Target: MerE (Shigella flexneri, UniProt Q7AKA4)
# Conditions: 5 uM compound, LB broth with 100 ug/mL chloramphenicol and 100 uM EDTA, 37 °C
# MerE, sequence (Q7AKA4 whole entry): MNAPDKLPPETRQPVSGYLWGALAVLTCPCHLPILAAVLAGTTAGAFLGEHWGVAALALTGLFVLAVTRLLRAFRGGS
smiles,measurement,value
[CH3][Hg][Cl] [CH3Hg(I)],"uptake of 14C-labelled compound by E. coli XL1-Blue cells, filtration and scinti",cells with pE4 took up significantly more CH3Hg(I) than control cells
